From US5459077A, “Methods for modelling tertiary structures of biologically active ligands and for modelling agonists and antagonists thereto” (PepMetics, Inc., priority 1993, dated 1995)
Bridge positions count the residues as written; N and C are the ends. Square brackets hold non-standard residues; d marks the D form. Peptide text beside a SMILES is read from it. Sar = CNCC(=O)O

Legend:
[1] = tested on: rat isolated uterus; type: cell-based; conditions: for AGONIST ACTIVITY: relative to Angiotensin II = 100; for agonist / antagonist character in words: footnotes of Table I
Experimental: ^b = Agonist Activity was measured via a rat isolated uterus bioassay
as described by Matsoukas et al., J. Med. Chem., 31, pp. 1418-1421 (1988)
Results are reported relative to Angiotensin II wherein Angiotensin II =
Analogs of Angiotensin II were synthesized, purified and bioassayed by method described by Matsoukas et al., J. Med. Chem., 31, pp. 1418-1421 (1988). 1,2-propanediol [Pr(OH)2 ] was dried by refluxing over calcium oxide for 8 hours, collected by distillation and stored over a molecular sieve. Water content was estimated by ^1 H NMR or by the Karl Fisher method. Isopropanol (PrOH) was of HPLC grade (Caledon Laboratories Ltd) and was expected to contain less than 1% water. Dimethyl sulfoxide (DMSO) and trifluoroethanol (TFE) were used without further treatment. Aqueous solvents were prepared from distilled water which had been passed through Fisher ion-exchange cartridges. N-acetyl-tyrosine-amide (NAYA) was obtained from Sigma. Sodium dodecylsulfate (SDS) was obtained from BDH biochemicals (specially pure) and was used without further treatment.
[Sar^1 ]Angiotensin II was synthesized by the solid phase technique and purified to homogeneity by reversed-phase HPLC using methods described by Matsoukas et al., J. Med. Chem. 31(7), pp. 1418-1421 (1988). The synthetic peptide gave the required amino acid analysis and appeared as a single product in two thin layer chromatography (TLC) systems. [Sar^1 ]Angiotensin II had 180% of the bioactivity of Angiotensin II in the rat uterus assay which is also described by Matsoukas et al., supra. Since HPLC afforded the trifluoroacetate salt of the peptide, [Sar^1 ]Angiotensin II was neutralized by passage through a column (1.5×3 cm) of carboxymethylcellulose (Whatman CM23) cation exchange resin. The peptide (10 mg) was first applied to the column in 0.01M ammonium acetate at pH 5 (5 ml) and then eluted with 0.5M ammonium acetate at pH 8 (10 ml). The effluent obtained at pH 8 was lyophilized thrice and 5 mg of the product was dissolved in 0.5 ml of DMSO-d6 and two drops of D2 O were added. Argon was bubbled through the sample for 5 minutes before the NMR tube was sealed.

[2] = agonist activity of oxytocin analog (assay not described)

Molecule | AGONIST ACTIVITY [1] | agonist / antagonist character in words [1] | further results
CC[C@H](C)[C@H](NC(=O)[C@H](Cc1ccc(O)cc1)NC(=O)[C@@H](NC(=O)[C@H](CCCNC(=N)N)NC(=O)CNC)C(C)C)C(=O)N[C@@H](Cc1ccccc1)C(=O)N1CCC[C@H]1C(=O)N[C@@H](Cc1ccccc1)C(=O)O [C] (H-[Sar]RVYIFPF-OH) | 7 |  | 
CC[C@H](C)[C@H](NC(=O)[C@H](Cc1ccc(O)cc1)NC(=O)[C@@H](NC(=O)[C@H](CCCNC(=N)N)NC(=O)CNC)C(C)C)C(=O)N[C@@H](Cc1c[nH]cn1)C(=O)N1CCC[C@H]1C(=O)N[C@@H](CC1CCCCC1)C(=O)O [D] | 4 | Potent receptor antagonist with residual agonist activity | 
CC[C@H](C)[C@H](NC(=O)[C@H](Cc1ccc(O)cc1)NC(=O)[C@@H](NC(=O)[C@@H](N)CCCNC(=N)N)C(C)C)C(=O)N[C@@H](Cc1c[nH]cn1)C(=O)N1CCC[C@H]1C(=O)N[C@@H](CC1CCCCC1)C(=O)O [E] | 5 | Potent receptor antagonist with residual agonist activity | 
CC[C@H](C)[C@H](NC(=O)[C@H](Cc1ccc(O)cc1)NC(=O)[C@@H](NC(=O)[C@H](CCCNC(=N)N)NC(=O)CNC)C(C)C)C(=O)N[C@@H](Cc1c[nH]cn1)C(=O)N1CCC[C@H]1C(=O)N[C@@H](Cc1ccccc1)C(N)=O [F] | 0.2 |  | 
CC[C@H](C)[C@H](NC(=O)[C@H](Cc1ccc(O)cc1)NC(=O)[C@@H](NC(=O)[C@H](CCCNC(=N)N)NC(=O)CNC)C(C)C)C(=O)N[C@@H](C)C(=O)N1CCC[C@H]1C(=O)N[C@@H](Cc1ccccc1)C(=O)O [G] (H-[Sar]RVYIAPF-OH) | less than 0.1 |  | 
CC[C@H](C)[C@H](NC(=O)[C@H](Cc1ccc(O)cc1)NC(=O)[C@@H](NC(=O)[C@H](CCCNC(=N)N)NC(=O)CNC)C(C)C)C(=O)N[C@@H](Cc1c[nH]cn1)C(=O)N1CCC[C@@H]1C(=O)N[C@@H](Cc1ccccc1)C(=O)O [I] | less than 0.1 |  | 
CC[C@H](C)[C@H](NC(=O)[C@@H]1CCCN1C(=O)[C@H](Cc1c[nH]cn1)NC(=O)[C@@H](NC(=O)[C@H](Cc1ccc(O)cc1)NC(=O)[C@@H](NC(=O)[C@H](CCCNC(=N)N)NC(=O)CNC)C(C)C)[C@@H](C)CC)C(=O)O [J] | less than 0.1 | Potent receptor antagonist | 
CC[C@H](C)[C@H](NC(=O)[C@H](Cc1ccc(O)cc1)NC(=O)[C@@H](NC(=O)[C@@H](N)CCCNC(=N)N)C(C)C)C(=O)N[C@@H](Cc1c[nH]cn1)C(=O)N1CCC[C@H]1C(=O)N[C@@H](Cc1ccccc1)C(=O)O [K] | 10 |  | 
CC[C@H](C)[C@H](NC(=O)[C@H](Cc1ccc(O)cc1)NC(=O)[C@@H](NC(=O)[C@H](CCCNC(=N)N)NC(=O)CNC)C(C)C)C(=O)N[C@@H](Cc1c[nH]cn1)C(=O)N1CCC[C@H]1C(=O)N[C@@H](Cc1ccccc1)C(N)=O [Ligand F, [Sar^1 Phe--NH2^8]Angiotensin II] |  | lack of significant agonist activity | 
CC[C@H](C)[C@H](NC(=O)[C@H](Cc1ccc(O)cc1)NC(=O)[C@@H](NC(=O)[C@H](CCCNC(=N)N)NC(=O)CNC)C(C)C)C(=O)N[C@@H](C)C(=O)N1CCC[C@H]1C(=O)N[C@@H](Cc1ccccc1)C(=O)O [Ligand G, [Sar^1 Ala^6]Angiotensin II] (H-[Sar]RVYIAPF-OH) |  | lack of significant agonist activity | 
CC[C@H](C)[C@@H]1NC(=O)[C@H](Cc2ccc(O)cc2)NC(=O)[C@@H](N)CSSC[C@@H](C(=O)N2CCC[C@H]2C(=O)N[C@@H](CC(C)C)C(=O)NCC(N)=O)NC(=O)[C@H](C)NC(=O)[C@H](CCC(N)=O)NC1=O [[Ala^5]] (H-CYIQACPLG-NH2; disulfide 1-6) |  |  | agonist activity in words [2]: no agonist activity
CC[C@H](C)[C@H](NC(=O)[C@H](Cc1ccc(O)cc1)NC(=O)[C@@H](NC(=O)[C@H](CCCNC(=N)N)NC(=O)CNC)C(C)C)C(=O)N[C@@H](Cc1c[nH]cn1)C(=O)N1CCC[C@H]1C(=O)N[C@@H](Cc1ccccc1)C(=O)O [[Sar^1]Angiotensin II, reference compound] |  |  | bioactivity relative to Angiotensin II ([1]; rat uterus assay): 180%
[Sar^1 Tyr(Me)^4 ]Angiotensin II [reference compound] | 100 |  | 
[Tyr(Me)^4 ]Angiotensin III [B, reference compound] | 27 |  | 
